From PMC13672995, “NCR13 peptide protects soybean against Cercospora sojina using multi-faceted modes of action and additive interaction with chemical fungicides” (Journal of Experimental Botany, 2025)
Values after ≈ are worked out from the molar mass of the structure shown. Like-named read-outs stand apart in the source and are kept apart here. Where a SMILES comes first, the peptide text is derived from it.

Experiments:
Assay type in all cases: cell-based, Cercospora sojina
[1] = tested on: C. sojina QoI fungicide-resistant isolate Cs350; settings: for MIC (μM) against C. sojina, Fungicide resistant, Cs350: 48 h; for fold increase of MIC with increasing iron concentration: FeSO4 in SFM
Description: (§1) In vitro antifungal activity of AFPs and QoI fungicides was determined using 96-well plate assays as described ([Velivelli et al., 2020]) with slight modifications. Briefly, 2- to 3-week-old C. sojina was used to make a conidial suspension in 2× SFM at the final concentration of ∼10^5 conidia ml^−1. Simultaneously, peptide dilutions (in water) at various concentrations were made. Fungicides were dissolved in 50% acetone and 50% water to make a stock solution of 500 µM, and serial dilutions were made in water as needed. The peptide–conidia or the fungicide–conidia mixture at the ratio of 1:1 (45 µl:45 µl) was added in a 96-well plate and incubated at room temperature for 48 h, after which MICs of the peptides/fungicides were calculated based on microscopy as well as the resazurin cell viability assay ([Velivelli et al., 2020]).

[2] = tested on: C. sojina QoI fungicide-sensitive isolate Cs320; experiment: microbe, parasite or virus in culture; settings: for MIC: Cercospora sojina, read-out: MIC (µM) against Fungicide sensitive C. sojina isolate (Cs320); for MIC / MIC (μM) against C. sojina isolates, Fungicide sensitive, Cs320: 48 h; for MIC (µM) against Fungicide sensitive C. sojina isolate (Cs320): QoI fungicides, determined in 2 days, 0.02 µM lowest concentration tested
Description: as §1

[3] = tested on: C. sojina Cs350 (fungicide resistant); experiment: Peptide-fungicide checkerboard assay; settings: for MIC: Cercospora sojina, SHAM 60 µg ml–1, microscopy, read-out: Individual MIC; for MIC / interaction with NCR13_PFV1 by FIC index: 96 h; for MIC / FIC score: Cs350, 4 d; for interaction with NCR13_PFV1 by FIC index: Cs350, in vitro
Description: Synergy between NCR13_PFV1 and the widely used QoI foliar fungicides, azoxystrobin (Sigma-Aldrich, Cat No: 31697), trifloxystrobin (Sigma-Aldrich, Cat No: 46447), and pyraclostrobin (Sigma-Aldrich, Cat No: 33696), were evaluated using checkerboard assays. This assay was performed in a 96-well plate and the preparation of conidial suspension, peptide dilutions, and fungicide dilutions were similar to the in vitro antifungal activity assay described above. The presence of an alternative respiration pathway allows some fungi including C. sojina to germinate even in the presence of a high dose of QoI fungicides in vitro ([Ziogas et al., 1997]; [Zhang et al., 2012]). Therefore, to prevent alternative respiration in C. sojina, salicylhydroxamic acid (SHAM) was added in each reaction at the final concentration of 60 µg ml^–1 ([Zhang et al., 2012]). The conidia, peptide, fungicide, and SHAM were added in a 96-well plate at the v/v ratio of 4:1:1:2 (50 µl:12.5 µl:12.5 µl:25 µl) in the final reaction volume of 100 µl, and the plate was incubated at room temperature for 96 h (4 d). After 96 h, MIC values of the peptide–fungicide combination, peptide alone, and fungicide alone were calculated based on microscopy as well as the resazurin cell viability assay. The fractional inhibitory concentration (FIC) index was calculated using the formula FIC = (MICA+B/MICA) + (MICB+A/MICB), where MICA and MICB are the MIC for peptide (A) alone and fungicide (B) alone, respectively, MICA+B is the MIC for peptide in combination with fungicide (A+B), and MICB+A is the MIC for fungicide in combination with peptide (B+A). The FIC index was interpreted as: synergistic, ≤0.5; additive, >0.5–1.0; indifferent, >1 to <4.0; or antagonistic, ≥4.0.

[4] = pair pyraclostrobin / NCR13_PFV1

CC[C@H](C)[C@H](NC(=O)[C@H](CCCNC(=N)N)NC(=O)[C@@H](NC(=O)[C@H](Cc1ccccc1)NC(=O)[C@H](Cc1c[nH]c2ccccc12)NC(=O)[C@H](Cc1ccccc1)NC(=O)[C@H](CCCNC(=N)N)NC(=O)[C@H](CCCNC(=N)N)NC(=O)[C@H](CC(C)C)NC(=O)[C@H](Cc1ccccc1)NC(=O)CNC(=O)[C@H](CCCCN)NC(=O)[C@H](CS)NC(=O)[C@H](CCCNC(=N)N)NC(=O)CNC(=O)CN)[C@@H](C)O)C(=O)N[C@@H](CS)C(=O)O [GMA4CG_V7] (H-GGRCKGFLRRFWFTRIC-OH)
MIC (μM) against C. sojina, Fungicide resistant, Cs350 [1]: 6 µM (≈ 12.6 µg/mL)

COC(=O)N(OC)c1ccccc1COc1ccn(-c2ccc(Cl)cc2)n1 [Pyraclostrobin, pyraclostrobin]
MIC [2]: < 0.02 µM
MIC (µM) against Fungicide sensitive C. sojina isolate (Cs320) [2]: <0.02 µM
MIC [3, 4]: 24 µM
interaction with NCR13_PFV1 by FIC index [3]: additive (additive, >0.5–1.0)
FIC score [3, 4]: ≤ 1

CC[C@H](C)[C@H](NC(=O)[C@H](CCCNC(=N)N)NC(=O)[C@@H](NC(=O)[C@H](Cc1c[nH]c2ccccc12)NC(=O)[C@H](Cc1ccc(O)cc1)NC(=O)[C@H](Cc1c[nH]c2ccccc12)NC(=O)[C@H](CCCNC(=N)N)NC(=O)[C@H](CCCNC(=N)N)NC(=O)[C@H](CC(C)C)NC(=O)[C@H](Cc1ccccc1)NC(=O)CNC(=O)[C@H](CCCCN)NC(=O)[C@H](CS)NC(=O)[C@H](CCCNC(=N)N)NC(=O)CNC(=O)CN)[C@@H](C)O)C(=O)N[C@@H](CS)C(=O)O [GMA4CG_V8] (H-GGRCKGFLRRWYWTRIC-OH)
MIC (μM) against C. sojina, Fungicide resistant, Cs350 [1]: 6 µM (≈ 13 µg/mL)

C[C@H](NC(=O)CN)C(=O)N[C@@H](CS)C(=O)N[C@@H](Cc1c[nH]cn1)C(=O)N[C@@H](CCCNC(=N)N)C(=O)N[C@@H](CCC(N)=O)C(=O)NCC(=O)N[C@@H](Cc1ccccc1)C(=O)NCC(=O)N[C@@H](Cc1ccccc1)C(=O)N[C@@H](C)C(=O)N[C@@H](Cc1ccccc1)C(=O)N[C@@H](Cc1ccccc1)C(=O)N[C@@H](Cc1ccccc1)C(=O)N[C@@H](Cc1ccc(O)cc1)C(=O)N[C@@H](CCCCN)C(=O)N[C@@H](CCCCN)C(=O)N[C@@H](CS)C(=O)O [GMA5AC_V2] (H-GACHRQGFGFAFFFYKKC-OH; N-terminus and C-terminus assumed)
MIC (μM) against C. sojina, Fungicide resistant, Cs350 [1]: 6 µM (≈ 12.7 µg/mL)

N=C(N)NCCC[C@H](NC(=O)[C@H](CS)NC(=O)[C@H](Cc1c[nH]c2ccccc12)NC(=O)[C@H](Cc1ccccc1)NC(=O)[C@H](CCCCN)NC(=O)[C@@H](N)CCCCN)C(=O)N[C@@H](CCCCN)C(=O)N1CCC[C@H]1C(=O)N[C@@H](CCCCN)C(=O)N[C@@H](Cc1c[nH]c2ccccc12)C(=O)N1CCC[C@H]1C(=O)N[C@@H](CCCCN)C(=O)N[C@@H](CS)C(=O)O [NCR13_V9] (H-KKFWCRKPKWPKC-OH; N-terminus and C-terminus assumed)
MIC (μM) against C. sojina isolates, Fungicide sensitive, Cs320 [2]: 3 µM (≈ 5.21 µg/mL)
MIC (μM) against C. sojina, Fungicide resistant, Cs350 [1]: 6 µM (≈ 10.4 µg/mL)
fold increase of MIC with increasing iron concentration [1]: 2 fold

C[C@H](NC(=O)CN)C(=O)N[C@@H](CS)C(=O)N[C@@H](Cc1c[nH]cn1)C(=O)N[C@@H](CCCNC(=N)N)C(=O)N[C@@H](CCC(N)=O)C(=O)NCC(=O)N[C@@H](Cc1ccccc1)C(=O)NCC(=O)N[C@@H](Cc1ccccc1)C(=O)N[C@@H](C)C(=O)N[C@@H](Cc1c[nH]c2ccccc12)C(=O)N[C@@H](Cc1ccccc1)C(=O)N[C@@H](Cc1c[nH]c2ccccc12)C(=O)N[C@@H](Cc1ccc(O)cc1)C(=O)N[C@@H](CCCCN)C(=O)N[C@@H](CCCCN)C(=O)N[C@@H](CS)C(=O)O [GMA5AC_V1] (H-GACHRQGFGFAWFWYKKC-OH; N-terminus and C-terminus assumed)
MIC (μM) against C. sojina, Fungicide resistant, Cs350 [1]: 6 µM (≈ 13.2 µg/mL)

CC(C)[C@H](NC(=O)[C@H](CCCCN)NC(=O)[C@@H]1CCCN1C(=O)[C@H](CCCCN)NC(=O)[C@H](CCCNC(=N)N)NC(=O)[C@H](CS)NC(=O)[C@H](C)NC(=O)[C@H](Cc1ccccc1)NC(=O)[C@H](CCCCN)NC(=O)[C@@H](N)CCCCN)C(=O)N1CCC[C@H]1C(=O)N[C@@H](CCCCN)C(=O)N[C@@H](CS)C(=O)O [NCR13_V7] (H-KKFACRKPKVPKC-OH; N-terminus and C-terminus assumed)
MIC (μM) against C. sojina isolates, Fungicide sensitive, Cs320 [2]: 6 µM (≈ 9.2 µg/mL)
MIC (μM) against C. sojina, Fungicide resistant, Cs350 [1]: 12 µM (≈ 18.4 µg/mL)
fold increase of MIC with increasing iron concentration [1]: 2 fold

CC(C)C[C@H](NC(=O)[C@H](CS)NC(=O)[C@H](C)NC(=O)CN)C(=O)N[C@@H](CCCCN)C(=O)N[C@@H](CC(N)=O)C(=O)N[C@@H](CCCNC(=N)N)C(=O)N[C@@H](Cc1c[nH]cn1)C(=O)N[C@@H](CO)C(=O)N[C@@H](CCCCN)C(=O)N[C@@H](Cc1c[nH]cn1)C(=O)N[C@@H](Cc1ccc(O)cc1)C(=O)NCC(=O)N[C@@H](Cc1c[nH]c2ccccc12)C(=O)N[C@@H](Cc1ccccc1)C(=O)N[C@@H](Cc1c[nH]c2ccccc12)C(=O)N[C@@H](Cc1ccc(O)cc1)C(=O)N[C@@H](Cc1ccc(O)cc1)C(=O)N[C@@H](CCCNC(=N)N)C(=O)N[C@@H](Cc1c[nH]cn1)C(=O)N[C@@H](CS)C(=O)N[C@@H](Cc1ccc(O)cc1)C(=O)O [GMAOe1C_V1] (H-GACLKNRHSKHYGWFWYYRHCY-OH; N-terminus and C-terminus assumed)
MIC (μM) against C. sojina, Fungicide resistant, Cs350 [1]: 3 to 6 µM

CC[C@H](C)[C@H](NC(=O)[C@H](CCCNC(=N)N)NC(=O)[C@H](CS)NC(=O)[C@H](CCCNC(=N)N)NC(=O)CNC(=O)[C@@H](N)CO)C(=O)N[C@@H](CC(C)C)C(=O)N[C@@H](Cc1ccccc1)C(=O)N[C@@H](CCCNC(=N)N)C(=O)N[C@@H](Cc1c[nH]c2ccccc12)C(=O)N[C@@H](Cc1ccc(O)cc1)C(=O)N[C@@H](Cc1ccccc1)C(=O)N[C@H](C(=O)N[C@@H](CCCCN)C(=O)N[C@@H](CC(N)=O)C(=O)N[C@@H](CS)C(=O)O)[C@@H](C)O [GMA1C_V3] (H-SGRCRILFRWYFTKNC-OH)
MIC (μM) against C. sojina, Fungicide resistant, Cs350 [1]: 6 µM (≈ 12.3 µg/mL)

CON=C(C(=O)OC)c1ccccc1CON=C(C)c1cccc(C(F)(F)F)c1 [Trifloxystrobin, trifloxystrobin]
MIC [2]: < 0.02 µM
MIC (µM) against Fungicide sensitive C. sojina isolate (Cs320) [2]: <0.02 µM
MIC ([3]; pair trifloxystrobin / NCR13_PFV1, highest fungicide concentration 48 µM): > 48 µM
interaction with NCR13_PFV1 by FIC index [3]: additive (additive, >0.5–1.0)
FIC score ([3]; pair trifloxystrobin / NCR13_PFV1): ≤ 1

CC[C@H](C)[C@H](NC(=O)[C@H](CCCNC(=N)N)NC(=O)[C@H](CS)NC(=O)[C@H](CCCNC(=N)N)NC(=O)CNC(=O)[C@@H](N)CO)C(=O)N[C@@H](CC(C)C)C(=O)N[C@@H](Cc1ccccc1)C(=O)N[C@@H](CCCNC(=N)N)C(=O)N[C@@H](Cc1c[nH]c2ccccc12)C(=O)N[C@@H](Cc1ccccc1)C(=O)N[C@@H](Cc1c[nH]c2ccccc12)C(=O)N[C@H](C(=O)N[C@@H](CCCCN)C(=O)N[C@@H](CC(N)=O)C(=O)N[C@@H](CS)C(=O)O)[C@@H](C)O [GMA1C_V2] (H-SGRCRILFRWFWTKNC-OH)
MIC (μM) against C. sojina, Fungicide resistant, Cs350 [1]: 6 µM (≈ 12.4 µg/mL)
